Data reported in US5151413A (American Home Products Corporation, priority 1991, dated 1992).
Converted amounts (≈) assume the structure as drawn. Like-named read-outs stand apart in the source and are kept apart here.

How the values were obtained:
[1] = tested on: thymocyte proliferation (cells from the thymus of normal BALB/c mice); test: comitogen-induced thymocyte proliferation procedure (LAF); format: cell-based; conditions: read-out: LAF IC50
Protocol: Immunosuppressive activity was evaluated in an in vitro standard pharmacological test procedure to measure lymphocyte proliferation (LAF) and in an in vivo procedure in which the survival time of a pinch skin graft was evaluated.
The comitogen-induced thymocyte proliferation procedure (LAF) was used as an in vitro measure of the immunosuppressive effects of representative compounds. Briefly, cells from the thymus of normal BALB/c mice are cultured for 72 hours with PHA and IL-1 and pulsed with tritiated thymidine during the last six hours. […] Cells are harvested and incorporated; radioactivity is determined. Inhibition of lymphoproliferation is assessed in percent change in counts per minute from non-drug treated controls. […] [formula]

[2] = tested on: Candida albicans ATCC 38247; test: Anti-Candida activity, plate test procedure, strain ATCC 38247; format: cell-based; conditions: ATCC38247, read-out: Anti-Candida Activity, Minimal Inhibitory Concentration (MIC)
Protocol: (§1) Antifungal activity of the compounds of this invention was measured against 5 strains of Candida albicans using a plate test procedure for measurement of inhibition. The following represents the typical procedure used. Compound to be tested was placed on sterile dried 1/4" plate disks, and allowed to dry. Agar plates were seeded with fungi and allowed to solidify. The impregnated disks were placed on the seeded Agar surface and incubated for the time required for the particular culture. Results are expressed in MIC (μg/ml) to inhibit growth.

[3] = tested on: Candida albicans ATCC 38248; test: Anti-Candida activity, plate test procedure, strain ATCC 38248; format: cell-based; conditions: ATCC38248, read-out: Anti-Candida Activity, Minimal Inhibitory Concentration (MIC)
Protocol: as §1

[4] = tested on: pinch skin grafts from male DBA/2 donors transplanted to male BALB/c recipients; test: survival time of pinch skin grafts (in vivo); parameters: species or system BALB/c mice; conditions: intraperitoneal; DBA/2 donors to BALB/c recipients
Protocol: The recipients are treated with either varying concentrations of cyclosporin A as test control or the test compound, intraperitoneally. Untreated recipients serve as rejection control. The graft is monitored daily and observations are recorded until the graft becomes dry and forms a blackened scab. This is considered as the rejection day.

[5] = tested on: Candida albicans ATCC 10231; test: Anti-Candida activity, plate test procedure, strain ATCC 10231; format: cell-based; conditions: ATCC10231, read-out: Anti-Candida Activity, Minimal Inhibitory Concentration (MIC)
Protocol: as §1

[6] = tested on: Candida albicans ATCC 38246; test: Anti-Candida activity, plate test procedure, strain ATCC 38246; format: cell-based; conditions: ATCC38246, read-out: Anti-Candida Activity, Minimal Inhibitory Concentration (MIC)
Protocol: as §1

Candida albicans 3669 = test: Anti-Candida activity, plate test procedure, strain 3669; format: cell-based; conditions: read-out: Anti-Candida Activity, Minimal Inhibitory Concentration (MIC)
Protocol: as §1

immune response = conditions: cited from earlier work
Candida albicans = conditions: especially against Candida albicans; cited from earlier work
[7] = Mus musculus, Thymocyte, thymocytes cultured 72 hours with PHA and IL-1, tritiated thymidine last six hours

Compound	IC50 ([1]; thymocytes cultured 72 hours with PHA and IL-1, tritiated thymidine last six hours)	MIC [2]	MIC [3]	Skin Graft, mean survival days [4]	MIC [5]	MIC [6]	MIC (Candida albicans 3669)	IC50 [1, 7]	inhibition of the immune response (in words) (immune response)	IC50 ([1]; Mus musculus, Thymocyte)	antifungal activity (in words) (Candida albicans)
31-[O-[2-(trimethylsilyl)ethoxylmethyl]rapamycin [Example 3]	17.2 nM	–	–	–	–	–	–	–	–	–	–
CO[C@H]1C[C@@H]2CC[C@@H](C)[C@@](O)(O2)C(=O)C(=O)N2CCCC[C@H]2C(=O)O[C@H]([C@H](C)C[C@@H]2CC[C@@H](O)[C@H](OC)C2)CC(=O)[C@H](C)/C=C(\C)[C@@H](OC(C)(C)OC)[C@@H](OC)C(=O)[C@H](C)C[C@H](C)/C=C/C=C/C=C/1C [Example 1, 31-[O-(1-Methoxy-1-methyl)ethyl]rapamycin]	–	0.025 µg/mL (≈ 0.0253 µM)	0.1 µg/mL (≈ 0.101 µM)	10.7 days	0.025 µg/mL (≈ 0.0253 µM)	0.4 µg/mL (≈ 0.406 µM)	0.4 µg/mL (≈ 0.406 µM)	3.2 nM	–	–	–
CO[C@H]1C[C@@H]2CC[C@@H](C)[C@@](O)(O2)C(=O)C(=O)N2CCCC[C@H]2C(=O)O[C@H]([C@H](C)C[C@@H]2CC[C@@H](OC(C)(C)OC)[C@H](OC)C2)CC(=O)[C@H](C)/C=C(\C)[C@@H](O)[C@@H](OC)C(=O)[C@H](C)C[C@H](C)/C=C/C=C/C=C/1C [Example 2, 42-[O-(1-methoxy-1-methyl)ethyl]rapamycin]	–	0.025 µg/mL (≈ 0.0253 µM)	0.1 µg/mL (≈ 0.101 µM)	–	0.025 µg/mL (≈ 0.0253 µM)	0.4 µg/mL (≈ 0.406 µM)	0.2 µg/mL (≈ 0.203 µM)	8.3 nM	–	–	–
CO[C@H]1C[C@@H]2CC[C@@H](C)[C@@](O)(O2)C(=O)C(=O)N2CCCC[C@H]2C(=O)O[C@H]([C@H](C)C[C@@H]2CC[C@@H](O)[C@H](OC)C2)CC(=O)[C@H](C)/C=C(\C)[C@@H](O)[C@@H](OC)C(=O)[C@H](C)C[C@H](C)/C=C/C=C/C=C/1C [Rapamycin, reference compound]	–	0.03 µg/mL (≈ 0.0328 µM)	0.006 µg/mL (≈ 0.00656 µM)	–	0.03 µg/mL (≈ 0.0328 µM)	0.25 µg/mL (≈ 0.273 µM)	0.25 µg/mL (≈ 0.273 µM)	–	inhibit the immune response	3.3 to 5.8 nM	profound antifungal activity
